Test results as given in patent publication US20240240078A1, “NUCLEIC ACID FUNCTIONALIZED METAL NANOPROBE AND PREPARATION METHOD THEREFOR” (SOUTHEAST UNIVERSITY, priority 2021, published 2024).

Columns and labels:
Escherichia coli [1] = assay: Fluorescence imaging of co-incubated bacteria under laser confocal fluorescence microscope; type: cell-based
Procedure: (§1) A preparation method for a nucleic acid functionalized metal nanoprobe includes: • (1) deoxyribonucleic acid (DNA) molecules are fully mixed with a diluted nucleic acid intercalator SYBR Green I (2.5×), and a mixture is placed at a room temperature to react in dark for 30 min. • (2) a reaction product of step (1) is fully mixed with 100 μmol/L chloroauric acid solution to obtain a mixed solution A. • (3) the mixed solution A and Escherichia coli are continuously co-incubated in a constant-temperature shaking table for 1 h-12 h to obtain a mixed solution B. A normal control group (a chloroauric acid solution having the same concentration as the experimental group is merely added) and a blank group (an Escherichia coli suspension without any treatment) are set. After incubation, a small amount of the above mixed solution are dripped into the slide glass, and mounting is performed with a cover glass. • (4) A slide glass is placed under a laser confocal fluorescence microscope to be activated. Further, the above mixture is irradiated with 808 nm laser for 5-10 min, is cultured on a solid medium, and counted.

Escherichia coli [2] = assay: Germicidal effect after 808 nm laser irradiation, culture on solid medium and counting; type: cell-based
Procedure: as §1

SMILES: [Au+3].[Cl-].[Cl-].[Cl-].[Cl-].[H+] [chloroauric acid]
- fluorescence / signal intensity (Escherichia coli [1]; co-incubated with Escherichia coli 1 h-12 h, metal cation 100 μmol/L): weak fluorescence
- concentration at which signal intensity reaches maximum / does not increase any more (Escherichia coli [1]; method of Example 1, 0, 10, 50, 100, 200, 300 μmol/L tested (FIG. 2)): 100 µmol/L
- signal intensity with increase of concentration (Escherichia coli [1]; method of Example 1, 0-300 μmol/L (FIG. 2)): enhanced
- germicidal (antibacterial) effect (Escherichia coli [2]; 808 nm laser 5-10 min, cultured on solid medium and counted, metal cation 100 μmol/L): most of Escherichia coli is killed
- sterilization effect with increase of concentration (Escherichia coli [2]; method of Example 1, 0-300 μmol/L (FIG. 3)): gradually enhanced
